Data from ChEMBL document CHEMBL4028869, “Synthesis and Bioevaluation of Macrocycle-Polyamine Conjugates as Cell Migration Inhibitors” (J Med Chem, 2017).

Experiments:
[1] = Antimigratory activity against human L3.6p1 cells at 1 uM after 24 hrs in presence of amine oxidase inhibitor aminoguanidine by scratch assay relative to control; assay type: functional; conditions: L3.6p1, 24 h
[2] = Antimigratory activity against human L3.6p1 cells at 0.5 uM after 24 hrs in presence of amine oxidase inhibitor aminoguanidine by scratch assay relative to control; assay type: functional; conditions: L3.6p1, 24 h
[3] = Selectivity ratio of IC50 for CHO-MG cells to IC50 for PTS in CHO cells; design: species or system Cricetulus griseus
CHO-MG = assay: Cytotoxicity against CHO-MG cells assessed as reduction in cell viability after 48 hrs in presence of aminoguanidine by MTS assay; assay type: cell-based; conditions: Cricetulus griseus
[4] = Substrate activity at PTS in CHO cells assessed as reduction in cell viability after 48 hrs in presence of aminoguanidine by MTS assay; assay type: cell-based; conditions: Cricetulus griseus
[5] = Antiproliferative activity against human L3.6p1 cells after 48 hrs in presence of amine oxidase inhibitor aminoguanidine by MTS assay; assay type: functional, cell-based; conditions: for IC50: Homo sapiens, L3.6p1, 48 h
[6] = Modulation of sphingomyelin pool in human L3.6p1 cells assessed as N22:2 level per mg protein at 500 nM after 48 hrs (reference value: 0.01 nmol); assay type: functional
[7] = Modulation of sphingomyelin pool in human L3.6p1 cells assessed as N17:0 level per mg protein at 500 nM after 48 hrs (reference value: 0.05 +/- 0.01 nmol); assay type: functional
[8] = Modulation of sphingomyelin pool in human L3.6p1 cells assessed as N22:1 level per mg protein at 500 nM after 48 hrs (reference value: 0.17 +/- 0.01 nmol); assay type: functional
[9] = Modulation of sphingomyelin pool in human L3.6p1 cells assessed as N23:2 level per mg protein at 500 nM after 48 hrs (reference value: 0.01 nmol); assay type: functional
[10] = Modulation of sphingomyelin pool in human L3.6p1 cells assessed as N24:1 level per mg protein at 500 nM after 48 hrs (reference value: 1.07 +/- 0.03 nmol); assay type: functional
[11] = Modulation of ceramide pool in human L3.6p1 cells assessed as N24:1 level per mg protein at 500 nM after 48 hrs (reference value: 0.37 +/- 0.06 nmol); assay type: functional
[12] = Modulation of sphingomyelin pool in human L3.6p1 cells assessed as N16:1 level per mg protein at 500 nM after 48 hrs (reference value: 0.28 +/- 0.01 nmol); assay type: functional
[13] = Modulation of sphingomyelin pool in human L3.6p1 cells assessed as N20:0 level per mg protein at 500 nM after 48 hrs (reference value: 0.06 +/- 0.01 nmol); assay type: functional
[14] = Modulation of sphingomyelin pool in human L3.6p1 cells assessed as N23:1 level per mg protein at 500 nM after 48 hrs (reference value: 0.10 nmol); assay type: functional
[15] = Modulation of sphingomyelin pool in human L3.6p1 cells assessed as N25:1 level per mg protein at 500 nM after 48 hrs (reference value: 0.02 +/- 0.01 nmol); assay type: functional
[16] = Modulation of sphingomyelin pool in human L3.6p1 cells assessed as N24:0 level per mg protein at 500 nM after 48 hrs (reference value: 0.32 +/- 0.01 nmol); assay type: functional
[17] = Modulation of sphingomyelin pool in human L3.6p1 cells assessed as N19:0 level per mg protein at 500 nM after 48 hrs (reference value: 0.01 nmol); assay type: functional
[18] = Modulation of ceramide pool in human L3.6p1 cells assessed as total ceramide level per mg protein at 500 nM after 48 hrs (reference value: 0.62 +/- 0.10 nmol); assay type: functional
[19] = Modulation of ceramide pool in human L3.6p1 cells assessed as N24:0 level per mg protein at 500 nM after 48 hrs (reference value: 0.16 +/- 0.04 nmol); assay type: functional
[20] = Modulation of sphingomyelin pool in human L3.6p1 cells assessed as N22:0 level per mg protein at 500 nM after 48 hrs (reference value: 0.23 +/- 0.01 nmol); assay type: functional
[21] = Modulation of sphingomyelin pool in human L3.6p1 cells assessed as total sphingomyelin level per mg protein at 500 nM after 48 hrs (reference value: 5.91 +/- 0.11 nmol); assay type: functional
[22] = Modulation of sphingomyelin pool in human L3.6p1 cells assessed as N18:0 level per mg protein at 500 nM after 48 hrs (reference value: 0.19 +/- 0.01 nmol); assay type: functional
[23] = Modulation of sphingomyelin pool in human L3.6p1 cells assessed as N14:0 level per mg protein at 500 nM after 48 hrs (reference value: 0.13 +/- 0.01 nmol); assay type: functional
[24] = Modulation of sphingomyelin pool in human L3.6p1 cells assessed as N24:2 level per mg protein at 500 nM after 48 hrs (reference value: 0.30 +/- 0.01 nmol); assay type: functional
[25] = Modulation of sphingomyelin pool in human L3.6p1 cells assessed as N21:0 level per mg protein at 500 nM after 48 hrs (reference value: 0.03 nmol); assay type: functional
[26] = Modulation of sphingomyelin pool in human L3.6p1 cells assessed as N25:0 level per mg protein at 500 nM after 48 hrs (reference value: 0.01 nmol); assay type: functional
[27] = Modulation of sphingomyelin pool in human L3.6p1 cells assessed as N15:0 level per mg protein at 500 nM after 48 hrs (reference value: 0.12 nmol); assay type: functional
[28] = Modulation of sphingomyelin pool in human L3.6p1 cells assessed as N16:0 level per mg protein at 500 nM after 48 hrs (reference value: 2.60 +/- 0.06 nmol); assay type: functional
[29] = Modulation of sphingomyelin pool in human L3.6p1 cells assessed as N26:1 level per mg protein at 500 nM after 48 hrs (reference value: 0.02 nmol); assay type: functional
[30] = Modulation of sphingomyelin pool in human L3.6p1 cells assessed as N20:1 level per mg protein at 500 nM after 48 hrs (reference value: 0.02 nmol); assay type: functional
[31] = Modulation of sphingomyelin pool in human L3.6p1 cells assessed as N23:0 level per mg protein at 500 nM after 48 hrs (reference value: 0.07 nmol); assay type: functional
[32] = Modulation of ceramide pool in human L3.6p1 cells assessed as N16:0 level per mg protein at 500 nM after 48 hrs (reference value: 0.08 +/- 0.01 nmol); assay type: functional
[33] = Modulation of sphingomyelin pool in human L3.6p1 cells assessed as N18:1 level per mg protein at 500 nM after 48 hrs (reference value: 0.07 nmol); assay type: functional
Mus musculus [34] = organism: Mus musculus; assay: Increase in SGMS activity in mouse PancO2 cell lysates assessed as induction of NBD-sphingomyelin production at 0.5 uM using C12-NBD-ceramide substrate after 72 hrs by TLC relative to control
Mus musculus [35] = organism: Mus musculus; assay: Increase in SGMS activity in mouse PancO2 cell lysates assessed as induction of NBD-sphingomyelin production at 1 uM using C12-NBD-ceramide substrate after 72 hrs by TLC relative to control
[36] = Solubility in water; assay type: physicochemical; conditions: buffer

SMILES: NCCNCCNCCN [TRIENTINE]
- inhibition at 1 µM [1]: 0%

SMILES: Cl.Cl.NCCNCc1c2ccccc2cc2ccccc12
- inhibition at 0.5 µM [2]: 6.2%
- Ratio IC50 [3]: 5.8
- IC50 (CHO-MG): 11300 nM
- IC50 [4]: 1960 nM
- IC5 [5]: 4.15 µM
- IC50 [5]: 24100 nM

SMILES: Cl.Cl.Cl.Cl.NCCNCCNCCNCC1CCCCCCCCCCCCCC1
- Activity [6]: 0.02 nmol
- Activity [7]: 0.05 nmol
- inhibition at 0.5 µM [2]: 6.1%
- Activity [8]: 0.19 nmol
- Activity [9]: 0.01 nmol
- Activity [10]: 1.15 nmol
- Activity [11]: 0.28 nmol
- Ratio IC50 [3]: 1.1
- Activity [12]: 0.28 nmol
- Activity [13]: 0.08 nmol
- Activity [14]: 0.11 nmol
- Activity [15]: 0.02 nmol
- Activity [16]: 0.32 nmol
- Activity [17]: 0.01 nmol
- Activity [18]: 0.49 nmol
- Activity [19]: 0.11 nmol
- Activity [20]: 0.28 nmol
- Activity [21]: 6.25 nmol
- Activity [22]: 0.24 nmol
- Activity [23]: 0.13 nmol
- Activity [24]: 0.31 nmol
- Activity [25]: 0.03 nmol
- inhibition at 1 µM [1]: 16.8%
- IC50 (CHO-MG): 2620 nM
- Activity [26]: 0.02 nmol
- Activity [27]: 0.12 nmol
- Activity [28]: 2.66 nmol
- Activity [29]: 0.03 nmol
- Activity [30]: 0.02 nmol
- Activity [31]: 0.08 nmol
- IC50 [4]: 2370 nM
- Activity [32]: 0.09 nmol
- IC5 [5]: 0.92 µM
- IC50 [5]: 1640 nM
- Activity [33]: 0.09 nmol

SMILES: Cl.Cl.Cl.NCCCNCCCN1CCCCCCCCCCCCCC1
- Activity [6]: 0.02 nmol
- Activity [7]: 0.06 nmol
- Activity (Mus musculus [34]): 89%
- inhibition at 0.5 µM [2]: 20.6%
- Activity [8]: 0.27 nmol
- Activity [9]: 0.01 nmol
- Activity [10]: 1.49 nmol
- Activity [11]: 0.51 nmol
- Ratio IC50 [3]: 1
- Activity [12]: 0.33 nmol
- Activity [13]: 0.1 nmol
- Activity [14]: 0.14 nmol
- Activity [15]: 0.03 nmol
- Activity (Mus musculus [35]): 75%
- Activity [16]: 0.39 nmol
- Activity [17]: 0.01 nmol
- Activity [18]: 0.89 nmol
- Activity [19]: 0.2 nmol
- Activity [20]: 0.35 nmol
- Activity [21]: 7.84 nmol
- Activity [22]: 0.32 nmol
- Activity [23]: 0.14 nmol
- Activity [24]: 0.41 nmol
- Activity [25]: 0.05 nmol
- inhibition at 1 µM [1]: 39.8%
- Activity [26]: 0.03 nmol
- Activity [27]: 0.14 nmol
- Activity [28]: 3.26 nmol
- Activity [29]: 0.04 nmol
- Activity [30]: 0.03 nmol
- Activity [31]: 0.1 nmol
- Activity [32]: 0.17 nmol
- IC5 [5]: 0.6 µM
- IC50 [5]: 990 nM
- Activity [33]: 0.11 nmol

SMILES: Cl.Cl.Cl.NCCCNCCCNCCC1CCCCCCCCCCCCCC1
- inhibition at 0.5 µM [2]: -15.5%
- Ratio IC50 [3]: 1.1
- inhibition at 1 µM [1]: 1.5%
- IC50 (CHO-MG): 2800 nM
- IC50 [4]: 2510 nM
- IC5 [5]: 1.64 µM
- IC50 [5]: 3340 nM

SMILES: OCC1CCCCCCCCCCCCCC1
- solubility [36]: Insoluble
- inhibition at 1 µM [1]: -37.2%
- IC50 (CHO-MG): > 100000 nM
- IC50 [4]: > 100000 nM
- IC5 [5]: 8.4 µM
- IC50 [5]: 42000 nM

SMILES: Cl.Cl.Cl.NCCNCCNCC1CCCCCCCCCCCCCC1
- inhibition at 0.5 µM [2]: 10.2%
- Ratio IC50 [3]: 1
- inhibition at 1 µM [1]: 26.8%
- IC50 (CHO-MG): 2550 nM
- IC50 [4]: 2480 nM
- IC5 [5]: 0.6 µM
- IC50 [5]: 1250 nM

SMILES: Cl.Cl.NCCNCC1CCCCCCCCCCCCCC1
- inhibition at 0.5 µM [2]: 6.2%
- Ratio IC50 [3]: 0.9
- inhibition at 1 µM [1]: 26.2%
- IC50 (CHO-MG): 2370 nM
- IC50 [4]: 2660 nM
- IC5 [5]: 0.6 µM
- IC50 [5]: 1440 nM

SMILES: Cl.Cl.Cl.NCCCCNCCCCNCc1c2ccccc2cc2ccccc12
- Ratio IC50 [3]: 148

SMILES: Cl.Cl.Cl.NCCCNCCCNCC1CCCCCCCCCCCCCC1
- Activity [6]: 0.02 nmol
- Activity [7]: 0.06 nmol
- Activity (Mus musculus [34]): 88%
- inhibition at 0.5 µM [2]: 20.2%
- Activity [8]: 0.22 nmol
- Activity [9]: 0.01 nmol
- Activity [10]: 1.22 nmol
- Activity [11]: 0.37 nmol
- Ratio IC50 [3]: 1
- Activity [12]: 0.3 nmol
- Activity [13]: 0.09 nmol
- Activity [14]: 0.12 nmol
- Activity [15]: 0.03 nmol
- Activity (Mus musculus [35]): 97%
- Activity [16]: 0.36 nmol
- Activity [17]: 0.01 nmol
- Activity [18]: 0.63 nmol
- Activity [19]: 0.14 nmol
- Activity [20]: 0.31 nmol
- Activity [21]: 6.79 nmol
- Activity [22]: 0.27 nmol
- Activity [23]: 0.13 nmol
- Activity [24]: 0.36 nmol
- Activity [25]: 0.04 nmol
- inhibition at 1 µM [1]: 29.9%
- Activity [26]: 0.02 nmol
- Activity [27]: 0.13 nmol
- Activity [28]: 2.84 nmol
- Activity [29]: 0.03 nmol
- Activity [30]: 0.03 nmol
- Activity [31]: 0.09 nmol
- Activity [32]: 0.11 nmol
- IC5 [5]: 80 µM
- IC50 [5]: 89400 nM
- Activity [33]: 0.1 nmol

SMILES: NCCNCCN
- inhibition at 1 µM [1]: 0%

SMILES: Cl.Cl.Cl.NCCCNCCCNC1CCCCCCCCCCCCCC1
- Activity (Mus musculus [34]): 75%
- Ratio IC50 [3]: 2.1
- Activity (Mus musculus [35]): 82%
